Results published in patent EP1285920A1, “C10 Ester sustituted taxanes as antitumor agents” (Florida State University Research Foundation, Inc., priority 2001, dated 2003).
Read-outs that look alike come from different tables or passages of the source.

How the values were obtained:
HCT116 carcinoma = details: for Toxic Deaths: mg/kg: Taxol 36 (split doses), 0503 72.6, 0536 49, 0663 159, 0670 123, 0687 159, 0706 108, 0908 159, 0947 76.9, 0951 72.6, 0983 72.6, 0999 49, 1003 49, 1011 108
Description: Antitumor compounds were formulated for an i.v. dosing regime and were prepared in the following vehicle: 5% ethanol, 5% Cremophor and 90% isotonic saline.
The antitumor compounds were given intravenously in a single maximum tolerated dose (MTD) appropriate for each compound. […] The MTDs for the antitumor compounds were calculated from earlier single dose data for mice receiving i.v. administration of these compounds. All vehicle control animals in the split dosing regimes were dosed twice intravenously with half of the total volume being given separated by one hour. The study was terminated on Day 60.
A complete response is obtained if the tumor is not palpable at the end of the study.

HCT116 = test: In Vitro cytotoxicity measured by the cell colony formation assay; format: cell-based, human; details: Homo sapiens, HCT-116; read-out: IN VITRO ID 50 HCT116
Procedure, shortened: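 Four hundred cells per dish in McCoy's 5a medium with 10% FBS were allowed to attach for 5 h at 37 °C. They were then exposed to compound for 72 h at 37 °C, added as a 10× stock made fresh in medium. After HBSS rinsing and refeeding, colonies were counted after 7 days.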

MX-1 carcinoma = details: for Toxic Deaths: mg/kg: Taxol 36 (split dose), 0503 72.6, 0536 49, 0663 159, 0670 123, 0687 159, 0706 108, 0908 159, 0947 76.9, 0951 72.6, 0983 67.4, 0999 49, 1003 49, 1011 108
Description: Thirteen antitumor compounds were formulated for an i.v. dosing regime (single i.v. bolus, qd x 1 schedule) prepared in the following vehicle: 5% ethanol, 5% Cremophor and 90% isotonic saline.
The antitumor compounds were given intravenously in a single maximum tolerated dose (MTD) appropriate for each compound. […] The MTDs for the antitumor compounds were calculated from earlier single dose data for mice receiving i.v. administration of these compounds. All vehicle control animals in the split dosing regimes were dosed twice intravenously with half the total volume being given separated by one hour. The study was terminated on Day 60.
A complete response is obtained if the tumor is not palpable at the end of the study. […]

A2780 ovarian carcinoma = details: for MDS: i.v. qd x 1 (compounds estimated MTD; Taxol 24 mg/kg split; Taxotere 70 mg/kg), days until tumor 2.0 g, ended Day 60; for MDS (n): mean days of survival until neoplasm reached 2.0 g, terminated Day 60; for Complete Response / Partial Respons / Stable Disease / Survivors: Day 60; for Mean Score: tumor scoring system
Description: Dosing was initiated on Day 1. […] Taxotere was given i.v. on a qd x 1 schedule at a dose of 70 mg/kg. […] The study was terminated on Day 60. Treatment groups are detailed in Table 7.

[1] = i.v. qd x 1 at MTD, 5 mice/group, Day 60, doses as in E3
[2] = number of 5 mice, tumor did not reach 2.0 g by end of study, i.v. qd x 1 at MTD, Day 60, doses as in E3
[3] = number of 5 mice, tumor not palpable at end of study, i.v. qd x 1 at MTD, Day 60, doses as in E3
[4] = number of 5 mice, tumor smaller than on Day 1, i.v. qd x 1 at MTD, Day 60, doses as in E3
[5] = number of 5 mice, i.v. qd x 1 at MTD, Day 60, doses as in E3
[6] = number of 5 mice, i.v. qd x 1 at MTD, Day 60
[7] = i.v. qd x 1 at MTD, 6 mice/group, Day 60, doses as in E17
[8] = number of 6 mice, tumor did not reach 2.0 g by end of study, i.v. qd x 1 at MTD, Day 60, doses as in E17
[9] = number of 6 mice, tumor not palpable at end of study, i.v. qd x 1 at MTD, Day 60, doses as in E17
[10] = number of 6 mice, tumor smaller than on Day 1, i.v. qd x 1 at MTD, Day 60, doses as in E17
[11] = number of 6 mice, i.v. qd x 1 at MTD, Day 60, doses as in E17
[12] = number of 6 mice, i.v. qd x 1 at MTD, Day 60
[13] = i.v. qd x 1 at estimated MTD (Taxol 24 mg/kg, Taxotere 70 mg/kg, 0983 72.6 mg/kg), 5 mice/group (Taxotere 6)
[14] = number of mice, i.v. qd x 1 at estimated MTD (Taxol 24 mg/kg, Taxotere 70 mg/kg, 0983 72.6 mg/kg), 5 mice/group (Taxotere 6)
[15] = A2780, i.v. qd x 1, five mice per group

SMILES	Mean Score (HCT116 carcinoma; [1])	Stable Disease (HCT116 carcinoma; [2])	Complete Response (HCT116 carcinoma; [3])	Partial Response (HCT116 carcinoma; [4])	Survivors (HCT116 carcinoma; [5])	Toxic Deaths (HCT116 carcinoma; [6])	IC50 (HCT116) [nM]	Mean Score (MX-1 carcinoma; [7])	Stable Disease (MX-1 carcinoma; [8])	Complete Response (MX-1 carcinoma; [9])	Partial Response (MX-1 carcinoma; [10])	Survivors (MX-1 carcinoma; [11])	Toxic Deaths (MX-1 carcinoma; [12])	MDS (A2780 ovarian carcinoma; A2780) [days]	MDS (n) (A2780 ovarian carcinoma; [13])	Toxic Deaths (A2780 ovarian carcinoma; [14])	Complete Response (A2780 ovarian carcinoma; [14])	Partial Respons (A2780 ovarian carcinoma; [14])	Stable Disease (A2780 ovarian carcinoma; [14])	total response rate (A2780 ovarian carcinoma; [15])	other results
CCC(=O)O[C@H]1C(=O)[C@@]2(C)[C@H]([C@H](OC(=O)c3ccccc3)[C@]3(O)C[C@H](OC(=O)[C@H](O)[C@@H](NC(=O)OC(C)(C)C)c4ccco4)C(C)=C1C3(C)C)[C@]1(OC(C)=O)CO[C@@H]1C[C@@H]2O [Compound 0536]	9.2 ± 0.2	0	1	4	5	0	< 1	6.7 ± 2.1	0	4	0	4	2	42.6	42.6 ± 3.3 (5) days	0	0	0	0		antitumor activity / tumor response (MX-1 carcinoma; MX-1, i.v. qd x 1, Day 60): complete and durable tumor regressions in all the treated mice; antitumor activity (A2780 ovarian carcinoma; A2780, i.v. qd x 1): did not cause any complete responses, partial responses, or cases of stable disease; Survivors (A2780 ovarian carcinoma; [14]): 0; Mean Score (A2780 ovarian carcinoma; [13]): 3 ± 0
CCC(=O)O[C@H]1C(=O)[C@@]2(C)[C@H]([C@H](OC(=O)c3ccccc3)[C@]3(O)C[C@H](OC(=O)[C@H](O)[C@@H](NC(=O)c4ccccc4)c4ccco4)C(C)=C1C3(C)C)[C@]1(OC(C)=O)CO[C@@H]1C[C@@H]2O [Compound 0663]					4	1	< 1					5	0							at least 20%	Partial Response (HCT116 carcinoma; iv): 2; Complete Response (HCT116 carcinoma; iv, 1440 h): 2; Mean Score (HCT116 carcinoma; iv, 1440 h): 7.6 ± 1.9; Stable Disease (HCT116 carcinoma; iv, 1440 h): 0; Partial Response (MX-1 carcinoma; iv): 0; Complete Response (MX-1 carcinoma; iv, 1440 h): 4; Mean Score (MX-1 carcinoma; iv, 1440 h): 7.7 ± 1.5; Stable Disease (MX-1 carcinoma; iv, 1440 h): 1; survival extension compared to Group 1 controls (A2780 ovarian carcinoma; A2780, i.v. qd x 1): 214%
CCCC(=O)O[C@H]1C(=O)[C@@]2(C)[C@H]([C@H](OC(=O)c3ccccc3)[C@]3(O)C[C@H](OC(=O)[C@H](O)[C@@H](NC(=O)OC(C)(C)C)c4cccs4)C(C)=C1C3(C)C)[C@]1(OC(C)=O)CO[C@@H]1C[C@@H]2O [Compound 1003]					5	0	< 1					4	0							at least 20%	Partial Response (HCT116 carcinoma; iv): 3; Complete Response (HCT116 carcinoma; iv, 1440 h): 2; Mean Score (HCT116 carcinoma; iv, 1440 h): 9.4 ± 0.2; Stable Disease (HCT116 carcinoma; iv, 1440 h): 0; Partial Response (MX-1 carcinoma; iv): 0; Complete Response (MX-1 carcinoma; iv, 1440 h): 4; MDS (n) (MX-1 carcinoma; iv, 1440 h): 29.1 ± 10.8 (2) days; Mean Score (MX-1 carcinoma; iv, 1440 h): 7.3 ± 1.7; Stable Disease (MX-1 carcinoma; iv, 1440 h): 0; partial responses (A2780 ovarian carcinoma; [15]): 2
CCCC(=O)O[C@H]1C(=O)[C@@]2(C)[C@H]([C@H](OC(=O)c3ccccc3)[C@]3(O)C[C@H](OC(=O)[C@H](O)[C@@H](NC(=O)OC(C)(C)C)c4ccoc4)C(C)=C1C3(C)C)[C@]1(OC(C)=O)CO[C@@H]1C[C@@H]2O [Compound 0999]	9.2 ± 0.2	0	1	4	5	0	< 1	8.2 ± 1.2	0	4	1	5	0							at least 20%	
CC(=O)O[C@@]12CO[C@@H]1C[C@H](O)[C@@]1(C)C(=O)[C@H](OC(=O)C3CC3)C3=C(C)[C@@H](OC(=O)[C@H](O)[C@@H](NC(=O)c4ccccc4)c4ccco4)C[C@@](O)([C@@H](OC(=O)c4ccccc4)[C@H]21)C3(C)C [Compound 0908]	9.2 ± 0.2	0	1	4	5	0	< 1	9.7 ± 0.3	0	5	1	6	0	43.1	43.1 ± 8.0 (2) days	1	0	1	1	at least 20%	treated animals with durable complete responses and partial responses (MX-1 carcinoma; MX-1, single i.v. MTD): 100%; survival extension compared to Group 1 controls (A2780 ovarian carcinoma; A2780, i.v. qd x 1): 268%; Toxic Deaths (A2780 ovarian carcinoma; [15]): one; Survivors (A2780 ovarian carcinoma; [14]): 2; Mean Score (A2780 ovarian carcinoma; [13]): 3.8 ± 1.5
